In brackets after ≈: the same amount, converted by molar mass.
Legend:
[1] = tested on: Enterococcus faecalis; assay: Antibacterial activity against Enterococcus faecalis for 18 to 20 hrs by broth microdilution method; type: functional
[2] = biological target: DNA gyrase subunit B (Staphylococcus aureus, UniProt P0A0K8); assay: Inhibition of Staphylococcus aureus Gyrase B ATPase activity by fluorescence analysis
[3] = tested on: Enterococcus faecium; assay: Antibacterial activity against Enterococcus faecium for 18 to 20 hrs by broth microdilution method; type: functional
[4] = tested on: Staphylococcus aureus; assay: Antibacterial activity against methicillin and ciprofloxacin-resistant Staphylococcus aureus 1721 for 18 to 20 hrs by broth microdilution method; type: functional
[5] = tested on: Staphylococcus aureus; assay: Antibacterial activity against methicillin-sensitive Staphylococcus aureus 42 for 18 to 20 hrs by broth microdilution method; type: functional
[6] = tested on: Staphylococcus aureus; assay: Antibacterial activity against methicillin-resistant Staphylococcus aureus 1118 for 18 to 20 hrs by broth microdilution method; type: functional
[7] = tested on: Streptococcus pneumoniae; assay: Antibacterial activity against Streptococcus pneumoniae for 18 to 24 hrs by broth microdilution method; type: functional
[8] = Inhibition of Staphylococcus aureus topoisomerase 4 by fluorescence analysis
[9] = Volume of distribution at steady state in mouse at 2 mg/kg, iv by LC-MS/MS analysis; type: ADME, organism-based; settings: in vivo, read-out: Vdss
[10] = Half-life in mouse at 2 mg/kg, iv by LC-MS/MS analysis; type: ADME, organism-based; settings: in vivo
[11] = tested on: Streptococcus pneumoniae; assay: Antibacterial activity against Streptococcus pneumoniae 402 infected in sc dosed mouse assessed as reduction in 2 log CFU in lung compound administered as BID for 1 day measured 24 hrs after last dose; type: functional
[12] = tested on: Streptococcus pneumoniae; assay: Antibacterial activity against Streptococcus pneumoniae 402 infected in sc dosed mouse assessed as reduction in 3 log CFU in lung compound administered as BID for 1 day measured 24 hrs after last dose; type: functional
[13] = Clearance in mouse at 2 mg/kg, iv by LC-MS/MS analysis; type: ADME, organism-based; settings: in vivo
[14] = Log D of compound at pH 7.4; settings: buffer
[15] = tested on: Staphylococcus aureus; assay: Antibacterial activity against Staphylococcus aureus 1118 infected in sc and iv dosed mouse assessed as septicemia compound administered 1 hr post-infection twice for 1 day measured for 7 days; type: functional; settings: read-out: PD50
[16] = tested on: Mus musculus; assay: Dose-normalized AUC in mouse at 2 mg/kg, iv by LC-MS/MS analysis; type: ADME, organism-based; settings: in vivo

Sequence of DNA gyrase subunit B (P0A0K8 whole entry): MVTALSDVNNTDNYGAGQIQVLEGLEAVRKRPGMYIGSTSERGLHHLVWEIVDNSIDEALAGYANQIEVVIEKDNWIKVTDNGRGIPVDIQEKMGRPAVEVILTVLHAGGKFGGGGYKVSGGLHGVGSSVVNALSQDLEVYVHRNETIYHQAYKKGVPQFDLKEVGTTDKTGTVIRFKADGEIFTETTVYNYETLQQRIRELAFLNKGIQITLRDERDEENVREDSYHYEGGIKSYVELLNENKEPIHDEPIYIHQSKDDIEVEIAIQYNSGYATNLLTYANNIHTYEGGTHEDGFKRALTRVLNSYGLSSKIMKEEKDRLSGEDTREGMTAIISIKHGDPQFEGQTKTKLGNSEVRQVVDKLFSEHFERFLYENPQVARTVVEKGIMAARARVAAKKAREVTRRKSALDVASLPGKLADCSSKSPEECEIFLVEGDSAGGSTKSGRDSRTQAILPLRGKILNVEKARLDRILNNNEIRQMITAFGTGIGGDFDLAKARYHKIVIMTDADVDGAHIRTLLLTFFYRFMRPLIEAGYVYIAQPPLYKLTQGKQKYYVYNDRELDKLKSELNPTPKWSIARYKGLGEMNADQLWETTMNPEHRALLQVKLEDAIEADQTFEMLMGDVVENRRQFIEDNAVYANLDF

With `CCCOc1nccc2c(-c3cnc(-c4ccc(CO)nc4)s3)n[nH]c12` the MIC [1] was 0.25 µg/mL (≈ 0.68 µM), the IC50 [2] was < 8 nM and the MIC [3] was 1 µg/mL (≈ 2.72 µM). For the same molecule, the MIC [4] was 0.125 µg/mL (≈ 0.34 µM), the MIC [5] was 0.125 µg/mL (≈ 0.34 µM) and the MIC [6] was 0.25 µg/mL (≈ 0.68 µM). For the same molecule, the MIC [7] was 0.25 µg/mL (≈ 0.68 µM).

In the case of `CCCc1cccc2c(-c3cncs3)n[nH]c12`, the MIC [1] is reported as > 32 µg/mL, the IC50 [2] is reported as 6500 nM and the MIC [3] is reported as > 32 µg/mL. For the same molecule, the MIC [4] was > 32 µg/mL, the MIC [5] was > 32 µg/mL and the MIC [6] was > 32 µg/mL. For the same molecule, the MIC [7] was > 32 µg/mL.

For `CCCc1cccc2c(-c3cnc(-c4ccc(CC(=O)O)nc4)s3)n[nH]c12`, the MIC [1] was 0.5 µg/mL (≈ 1.32 µM), the IC50 [2] was 25 nM and the MIC [3] was 4 µg/mL (≈ 10.6 µM). It also gave an MIC [4] of 0.25 µg/mL (≈ 0.661 µM), an IC50 [8] of 434 nM and an MIC [5] of 0.25 µg/mL (≈ 0.661 µM). The MIC [6] was 0.25 µg/mL (≈ 0.661 µM) and the MIC [7] was 0.5 µg/mL (≈ 1.32 µM).

Molecule `CCCc1cccc2c(-c3cnc(-c4ccc(C(=O)O)cn4)s3)n[nH]c12` has an MIC [1] of 8 µg/mL (≈ 22 µM), an IC50 [2] of 49 nM and an MIC [3] of 4 µg/mL (≈ 11 µM). For the same molecule, the MIC [4] was > 8 µg/mL, the IC50 [8] was 9900 nM and the MIC [5] was 8 µg/mL (≈ 22 µM). The MIC [6] was > 8 µg/mL and the MIC [7] was 8 µg/mL (≈ 22 µM).

With `CCCc1cccc2c(-c3cnc(-c4cnc(C(=O)O)cc4C)s3)n[nH]c12` the MIC [1] was 0.06 µg/mL (≈ 0.159 µM), the IC50 [2] was 12 nM and the MIC [3] was 0.013 µg/mL (≈ 0.0344 µM). It also gave an MIC [4] of 0.03 µg/mL (≈ 0.0793 µM), an IC50 [8] of 60 nM and an MIC [5] of 0.02 µg/mL (≈ 0.0528 µM). For the same molecule, the MIC [6] was 0.02 µg/mL (≈ 0.0528 µM) and the MIC [7] was 0.125 µg/mL (≈ 0.33 µM).

In the case of `CCCc1cccc2c(-c3cnc(-c4ccc(C(=O)O)c(=O)[nH]4)s3)n[nH]c12`, the MIC [1] is reported as > 8 µg/mL, the IC50 [2] is reported as 168 nM and the MIC [3] is reported as > 8 µg/mL. For the same molecule, the MIC [4] was > 8 µg/mL, the MIC [5] was > 8 µg/mL and the MIC [6] was > 8 µg/mL. For the same molecule, the MIC [7] was > 8 µg/mL.

`CCCc1cccc2c(-c3cnc(-c4ccc(C(=O)O)nc4)s3)n[nH]c12` gave an MIC [1] of 0.03 µg/mL (≈ 0.0823 µM), an IC50 [2] of 10 nM and an MIC [3] of 0.06 µg/mL (≈ 0.165 µM). The Vd [9] was 3.47 L/kg, the MIC [4] was 0.06 µg/mL (≈ 0.165 µM) and the half-life [10] was 2.1 h. The ED [11] was >25 mg/kg, the ED [12] was >25 mg/kg and the clearance [13] was 105 mL/min/kg. The IC50 [8] was 56 nM, the MIC [5] was 0.06 µg/mL (≈ 0.165 µM) and the MIC [6] was 0.06 µg/mL (≈ 0.165 µM). It also gave a logD [14] of 1.7, an ED50 [15] of 1 mg/kg and an MIC [7] of 0.06 µg/mL (≈ 0.165 µM). The AUC/dose [16] was 0.159 µg·h/mL/mg/kg.

`CCCc1cccc2c(-c3cnc(-c4cnc(C(=O)O)c(OC)c4)s3)n[nH]c12` gave an MIC [1] of 2 µg/mL (≈ 5.07 µM), an IC50 [2] of 14 nM and an MIC [3] of 4 µg/mL (≈ 10.1 µM). The MIC [4] was > 8 µg/mL, the IC50 [8] was 115 nM and the MIC [5] was 1 µg/mL (≈ 2.54 µM). The MIC [6] was 1 µg/mL (≈ 2.54 µM) and the MIC [7] was 1 µg/mL (≈ 2.54 µM).

With `CCCc1cccc2c(-c3cnc(-c4cnc(C(=O)O)c(F)c4)s3)n[nH]c12` the MIC [1] was 0.25 µg/mL (≈ 0.654 µM), the IC50 [2] was < 8 nM and the MIC [3] was 0.25 µg/mL (≈ 0.654 µM). It also gave an MIC [4] of 0.25 µg/mL (≈ 0.654 µM), an IC50 [8] of 24 nM and an MIC [5] of 0.125 µg/mL (≈ 0.327 µM). For the same molecule, the MIC [6] was 0.125 µg/mL (≈ 0.327 µM) and the MIC [7] was 0.25 µg/mL (≈ 0.654 µM).

With `CCCc1cccc2c(-c3cnc(-c4ccc(COP(=O)(O)O)nc4)s3)n[nH]c12` the MIC [1] was > 8 µg/mL, the IC50 [2] was 9 nM and the MIC [3] was 2 µg/mL (≈ 4.65 µM). For the same molecule, the MIC [4] was 0.5 µg/mL (≈ 1.16 µM), the IC50 [8] was 147 nM and the MIC [5] was 0.25 µg/mL (≈ 0.581 µM). It also gave an MIC [6] of 0.25 µg/mL (≈ 0.581 µM) and an MIC [7] of 2 µg/mL (≈ 4.65 µM).

With `CCCOc1nccc2c(-c3cnc(-c4ccc(C(=O)O)nc4)s3)n[nH]c12` the MIC [1] was 2 µg/mL (≈ 5.24 µM), the IC50 [2] was < 8 nM and the MIC [3] was 2 µg/mL (≈ 5.24 µM). For the same molecule, the MIC [4] was 8 µg/mL (≈ 21 µM), the MIC [5] was 4 µg/mL (≈ 10.5 µM) and the MIC [6] was 4 µg/mL (≈ 10.5 µM). For the same molecule, the MIC [7] was 0.06 µg/mL (≈ 0.157 µM).

In the case of `CCCc1cccc2c(-c3cnc(-c4ccc(C(=O)NCCN5CCCCC5)nc4)s3)n[nH]c12`, the MIC [1] is reported as > 8 µg/mL, the IC50 [2] is reported as 20 nM and the MIC [3] is reported as > 8 µg/mL. For the same molecule, the MIC [4] was 2 µg/mL (≈ 4.21 µM), the IC50 [8] was > 2000 nM and the MIC [5] was 2 µg/mL (≈ 4.21 µM). The MIC [6] was 1 µg/mL (≈ 2.11 µM) and the MIC [7] was > 8 µg/mL.

Molecule `CCCc1c(O)ccc2c(-c3cnc(-c4cnc(C(=O)O)cc4C)s3)n[nH]c12` has an MIC [1] of 0.06 µg/mL (≈ 0.152 µM), an IC50 [2] of 8 nM and an MIC [3] of 0.25 µg/mL (≈ 0.634 µM). The MIC [4] was 0.125 µg/mL (≈ 0.317 µM), the MIC [5] was 0.125 µg/mL (≈ 0.317 µM) and the MIC [6] was 0.125 µg/mL (≈ 0.317 µM). The MIC [7] was 0.06 µg/mL (≈ 0.152 µM).

In the case of `CCCc1cccc2c(-c3cnc(-c4ccc(CO)nc4)s3)n[nH]c12`, the MIC [1] is reported as > 8 µg/mL, the IC50 [2] is reported as 15 nM and the MIC [3] is reported as > 8 µg/mL. For the same molecule, the MIC [4] was 0.06 µg/mL (≈ 0.171 µM), the IC50 [8] was > 4000 nM and the MIC [5] was 0.06 µg/mL (≈ 0.171 µM). For the same molecule, the MIC [6] was 0.06 µg/mL (≈ 0.171 µM) and the MIC [7] was 8 µg/mL (≈ 22.8 µM).

`CCCc1c(O)ccc2c(-c3cnc(-c4ccc(C(=O)O)c(F)c4)s3)n[nH]c12` gave an MIC [1] of 0.02 µg/mL (≈ 0.0503 µM), an IC50 [2] of 11 nM and an MIC [3] of 0.02 µg/mL (≈ 0.0503 µM). It also gave an MIC [4] of 0.25 µg/mL (≈ 0.629 µM), an MIC [5] of 0.125 µg/mL (≈ 0.315 µM) and an MIC [6] of 0.25 µg/mL (≈ 0.629 µM). For the same molecule, the MIC [7] was 0.06 µg/mL (≈ 0.151 µM).

— ChEMBL document CHEMBL3739399, “Discovery of Indazole Derivatives as a Novel Class of Bacterial Gyrase B Inhibitors” (ACS Med Chem Lett, 2015)
